# Measured values as given in paper PMC10269895 (Microbiology Spectrum, 2023).
# Columns and labels:
# [1] = Plasma stability; assay type: in vitro ADME; conditions: for Degradation: after 4 h
# Experimental: For plasma clearance, peptides were dissolved as 1 mM stock solutions in sterile deionized water and incubated at 37°C in 500 μL plasma derived from different species (human, mouse, and rat) at a final concentration of 5 μM. At different time points (0, 1, and 4 h), 100-μL samples were transferred to 500 μL ethanol containing 0.5% (vol/vol) ammonia, and plasma proteins were precipitated for 20 min at 1,735 × g. Each 10-μL supernatant sample was separated on a Triart C18 column (1.9 μm, 20 by 2 mm; YMC, Kyoto, Japan) with an ascending acetonitrile gradient in water (supplemented with 0.1% formic acid), at a flow rate of 500 μL/min. Samples were analyzed in triplicate by LC-MS/MS as above, and the stability of the parent peptides was evaluated based on the comparison of blank samples with incubated samples.
# [2] = target: hCaV3.1 (Homo sapiens, UniProt O43497); assay: Off-target ion channel profiling (automated patch clamp); assay type: cell-based; conditions: concentrations up to 30 μM
# Experimental: (§1) The effect of GE81112A on the hERG and other ion channels (hNaV1.5, hNaV1.2, hCaV3.1, or hKV4.3) was investigated using an automated patch-clamp method, as described by Houtmann et al. ([17]). GE81112A was diluted in a 5-fold 1:3 dilution series with a final concentration range of 30 to 0.12 μM in extracellular medium (150 mM NaCl, 4 mM KCl, 2 mM CaCl2, 1 mM MgCl2, 10 mM HEPES, 10 mM glucose, 0.06% Pluronic F-68, 0.3% residual DMSO). The hERG channel was constitutively expressed in Chinese hamster ovary (CHO) cells (CHO hERG Duo; B’SYS GmbH, Witterswil, Switzerland). CHO cells were grown at a concentration of 8 × 10^6 CHO cells/mL in QPlates (Sophion/Biolin Scientific, Ballerup, Denmark) in Ex-Cell animal component-free CHO medium (Sigma-Aldrich) supplemented with 25 mM HEPES, 100 U/mL penicillin-streptomycin, and 0.004% soybean trypsin inhibitor. To each well, we added extracellular medium containing the desired concentration of GE81112A. The peptide-hERG interaction was quantified by recording the tail current following repolarization of the hERG channels using a QPatch HTX station (Sophion/Biolin Scientific). The IC50 values were determined using the values from three replicates of the GE81112A concentration series with respect to the terfenadine citrate positive control and extracellular medium (blank).
# [3] = target: hNaV1.5 (Homo sapiens, UniProt Q14524); assay: as above; assay type: cell-based; conditions: concentrations up to 30 μM
# Experimental: as §1
# [4] = target: T1, hERG (Homo sapiens, UniProt Q12809); assay: as above; assay type: cell-based; conditions: concentrations up to 30 μM
# T1 construct: host or cells: CHO
# Experimental: as §1
# [5] = target: hKV4.3 (Homo sapiens, UniProt Q9UK17); assay: as above; assay type: cell-based; conditions: concentrations up to 30 μM
# Experimental: as §1
# [6] = target: hNaV1.2 (Homo sapiens, UniProt Q99250); assay: as above; assay type: cell-based; conditions: concentrations up to 30 μM
# Experimental: as §1
# [7] = Hepatic in vitro CLint in primary plated hepatocytes; assay type: in vitro ADME, human
# Experimental: For hepatic in vitro CLint studies, primary cultures of cryopreserved human or animal species hepatocytes were seeded at a density of 200,000 cells per well and cultured overnight in collagen-coated 48-well plates in modified Ham’s F-12/William’s E medium. Disappearance kinetics of 5 μM GE81112A were sampled over a 24-h period. Dextromethorphan, midazolam, phenacetin, and tolbutamide (5 μM each) were used as reference compounds. Acetonitrile was used to terminate the incubation, and samples were centrifuged at 2,000 × g for 10 min after the addition of an appropriate internal standard. Supernatants were separated by LC using an AERIS peptide XB-C18 column (3.6 μm, 50 by 2.1 mm; Phenomenex, Aschaffenburg, Germany) with the following gradient of buffer A (water) and buffer B (acetonitrile): 0 to 5 min, 95% buffer A; 20 to 25 min, 5% buffer A. Both solvents were supplemented with 0.1% formic acid. The remaining parent peptide was quantified by LC-MS/MS using a Q Exactive hybrid quadrupole-Orbitrap device (Thermo Fisher Scientific). In vitro hepatic CLint was calculated as dose/area under the concentration-time curve from 0 to 24 h (AUC0–24), where dose is the concentration of GE81112A determined in the time zero sample and classified using reference compounds for low, moderate, or high CLint.
# [8] = system: G-protein-coupled receptors, ion channels, NET and DAT panel; assay: Pharmacological off-target profiling: in vitro binding assays (CEREP); parameters: species or system human unless stated (rat); conditions: 0.01 mM
# Excerpt: FIG 3 In vitro binding assays. Inhibitory effects of GE81112A were investigated for G-protein-coupled receptors for adenosine (A1 and A2A), […] (α1A, α2A, β1, and β2), cannabinoids (CB1 and CB2), dopamine (D1 and D2S), histamine (H1 and H2), acetylcholine (M1, M2, and M3), opioids (μ-MOP), and serotonin (5-HT1A, 5-HT2A, and 5-HT2B), the ion channels Gly (rat), nAChR (α4β2), nAChR (muscle type), PCP (rat), Cav1.2 (rat), Kv (rat), SKCa (rat), and GABACl (rat), NET (GenBank accession number P23975), and DAT (GenBank accession number Q01959).
# T1 sequence (Q12809 whole entry): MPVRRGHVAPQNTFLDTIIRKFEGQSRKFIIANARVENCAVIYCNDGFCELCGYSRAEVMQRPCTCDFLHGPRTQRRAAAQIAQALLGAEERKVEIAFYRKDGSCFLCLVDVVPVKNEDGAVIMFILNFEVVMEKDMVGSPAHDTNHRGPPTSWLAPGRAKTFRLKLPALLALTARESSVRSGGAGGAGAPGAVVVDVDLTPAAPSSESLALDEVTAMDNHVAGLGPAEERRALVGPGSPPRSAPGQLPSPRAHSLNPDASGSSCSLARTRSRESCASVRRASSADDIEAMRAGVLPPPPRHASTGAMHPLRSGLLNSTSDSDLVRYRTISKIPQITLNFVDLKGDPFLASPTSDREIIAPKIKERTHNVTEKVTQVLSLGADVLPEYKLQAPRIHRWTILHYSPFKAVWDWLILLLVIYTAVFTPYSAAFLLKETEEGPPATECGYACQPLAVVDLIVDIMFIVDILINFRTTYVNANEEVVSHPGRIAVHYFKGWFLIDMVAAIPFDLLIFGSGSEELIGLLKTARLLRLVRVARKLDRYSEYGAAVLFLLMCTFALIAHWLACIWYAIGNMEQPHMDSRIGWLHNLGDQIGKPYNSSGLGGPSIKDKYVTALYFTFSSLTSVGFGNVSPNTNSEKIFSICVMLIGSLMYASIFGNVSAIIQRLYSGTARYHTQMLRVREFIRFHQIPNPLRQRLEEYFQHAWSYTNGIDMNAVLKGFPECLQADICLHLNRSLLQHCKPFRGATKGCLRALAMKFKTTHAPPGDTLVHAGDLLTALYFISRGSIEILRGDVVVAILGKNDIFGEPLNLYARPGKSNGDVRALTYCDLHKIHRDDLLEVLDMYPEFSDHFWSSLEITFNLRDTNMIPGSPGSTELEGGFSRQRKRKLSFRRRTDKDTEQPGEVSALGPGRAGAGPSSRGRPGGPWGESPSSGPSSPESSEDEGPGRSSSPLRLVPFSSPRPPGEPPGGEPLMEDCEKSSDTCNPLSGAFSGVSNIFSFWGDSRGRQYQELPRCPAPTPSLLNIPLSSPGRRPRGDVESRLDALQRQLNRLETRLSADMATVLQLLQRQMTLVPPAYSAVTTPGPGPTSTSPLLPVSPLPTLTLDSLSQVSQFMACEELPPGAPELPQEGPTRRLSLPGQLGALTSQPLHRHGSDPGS
# Chain of hNaV1.5 (Q14524 whole entry): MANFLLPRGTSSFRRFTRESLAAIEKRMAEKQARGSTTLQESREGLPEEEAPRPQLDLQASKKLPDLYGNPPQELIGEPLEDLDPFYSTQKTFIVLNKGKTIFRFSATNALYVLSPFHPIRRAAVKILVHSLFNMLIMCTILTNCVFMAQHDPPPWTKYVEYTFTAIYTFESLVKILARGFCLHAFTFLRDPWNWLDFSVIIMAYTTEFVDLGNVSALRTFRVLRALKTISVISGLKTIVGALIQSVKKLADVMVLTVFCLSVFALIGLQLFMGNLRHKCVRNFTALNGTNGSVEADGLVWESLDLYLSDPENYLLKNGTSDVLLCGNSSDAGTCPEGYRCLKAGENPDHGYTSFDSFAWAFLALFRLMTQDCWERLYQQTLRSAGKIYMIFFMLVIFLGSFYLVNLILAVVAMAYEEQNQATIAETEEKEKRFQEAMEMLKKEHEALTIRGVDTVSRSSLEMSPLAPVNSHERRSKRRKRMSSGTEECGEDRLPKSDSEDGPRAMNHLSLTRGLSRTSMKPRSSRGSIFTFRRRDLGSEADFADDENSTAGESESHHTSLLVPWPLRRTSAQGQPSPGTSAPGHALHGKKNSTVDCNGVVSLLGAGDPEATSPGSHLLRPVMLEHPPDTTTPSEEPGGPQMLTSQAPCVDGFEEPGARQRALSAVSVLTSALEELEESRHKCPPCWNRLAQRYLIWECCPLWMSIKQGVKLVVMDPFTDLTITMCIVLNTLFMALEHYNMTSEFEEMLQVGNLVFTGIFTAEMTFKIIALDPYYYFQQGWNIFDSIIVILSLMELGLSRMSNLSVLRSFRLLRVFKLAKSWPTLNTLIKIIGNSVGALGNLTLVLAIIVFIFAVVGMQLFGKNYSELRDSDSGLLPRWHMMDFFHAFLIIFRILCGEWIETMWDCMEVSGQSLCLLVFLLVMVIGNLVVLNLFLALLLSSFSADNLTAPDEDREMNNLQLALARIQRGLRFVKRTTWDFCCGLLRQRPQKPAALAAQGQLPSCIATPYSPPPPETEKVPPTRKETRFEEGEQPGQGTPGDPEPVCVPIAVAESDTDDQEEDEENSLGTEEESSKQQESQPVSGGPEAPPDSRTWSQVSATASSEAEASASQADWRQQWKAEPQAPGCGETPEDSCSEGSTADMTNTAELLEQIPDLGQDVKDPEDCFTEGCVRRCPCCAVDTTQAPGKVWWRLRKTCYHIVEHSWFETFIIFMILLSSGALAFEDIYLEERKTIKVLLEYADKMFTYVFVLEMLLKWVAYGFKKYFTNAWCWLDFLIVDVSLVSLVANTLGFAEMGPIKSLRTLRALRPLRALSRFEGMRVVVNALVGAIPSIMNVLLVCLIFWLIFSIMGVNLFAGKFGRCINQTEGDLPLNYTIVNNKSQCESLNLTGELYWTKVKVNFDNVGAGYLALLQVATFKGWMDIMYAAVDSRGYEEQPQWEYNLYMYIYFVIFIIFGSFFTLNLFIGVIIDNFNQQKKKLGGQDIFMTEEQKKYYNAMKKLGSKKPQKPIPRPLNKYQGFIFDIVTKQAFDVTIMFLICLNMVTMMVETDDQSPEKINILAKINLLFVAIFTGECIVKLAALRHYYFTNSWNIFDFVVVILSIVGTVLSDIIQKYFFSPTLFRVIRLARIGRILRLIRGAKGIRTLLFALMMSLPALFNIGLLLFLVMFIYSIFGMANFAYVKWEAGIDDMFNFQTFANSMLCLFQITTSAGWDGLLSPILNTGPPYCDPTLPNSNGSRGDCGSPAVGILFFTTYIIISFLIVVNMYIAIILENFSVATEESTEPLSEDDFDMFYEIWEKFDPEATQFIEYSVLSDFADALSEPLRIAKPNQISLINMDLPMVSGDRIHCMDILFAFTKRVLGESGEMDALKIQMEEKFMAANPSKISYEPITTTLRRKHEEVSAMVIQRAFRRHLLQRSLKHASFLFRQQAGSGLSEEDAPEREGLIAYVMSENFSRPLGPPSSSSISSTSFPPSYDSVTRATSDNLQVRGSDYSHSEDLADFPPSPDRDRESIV
# Chain of hKV4.3 (Q9UK17 whole entry): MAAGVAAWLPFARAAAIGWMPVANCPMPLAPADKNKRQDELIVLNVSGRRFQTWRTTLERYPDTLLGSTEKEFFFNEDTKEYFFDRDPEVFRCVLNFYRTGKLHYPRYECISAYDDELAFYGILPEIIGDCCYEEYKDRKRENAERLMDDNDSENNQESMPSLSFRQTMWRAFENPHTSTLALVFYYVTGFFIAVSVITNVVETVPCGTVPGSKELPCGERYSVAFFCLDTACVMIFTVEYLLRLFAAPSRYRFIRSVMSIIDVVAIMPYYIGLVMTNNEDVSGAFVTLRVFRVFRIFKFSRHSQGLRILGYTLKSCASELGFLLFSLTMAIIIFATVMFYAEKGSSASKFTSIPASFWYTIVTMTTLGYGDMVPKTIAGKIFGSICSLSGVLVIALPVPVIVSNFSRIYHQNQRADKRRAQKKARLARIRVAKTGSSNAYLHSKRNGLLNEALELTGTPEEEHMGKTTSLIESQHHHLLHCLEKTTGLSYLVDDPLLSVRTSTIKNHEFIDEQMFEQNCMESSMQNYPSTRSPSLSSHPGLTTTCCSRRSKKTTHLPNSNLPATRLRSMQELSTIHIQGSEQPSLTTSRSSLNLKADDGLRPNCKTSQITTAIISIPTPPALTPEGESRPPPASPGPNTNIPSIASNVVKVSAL
smiles,measurement,setting,value
NC(=O)OC[C@@H](O)C[C@H](NC(=O)[C@H]1NCCC[C@H]1O)C(=O)N[C@@H](Cc1c[nH]cn1)C(=O)N[C@H](C(=O)O)[C@H](O)c1cnc(Cl)[nH]1 [GE81112A],"metabolised at 1 h, 1 μM","[1]; human blood plasma, 37°C, 1 h, read-out: Hydrolysis",3%
same,"metabolised at 4 h, 1 μM","[1]; human blood plasma, 37°C, 4 h, read-out: Hydrolysis",27%
same,Degradation,[1]; mouse blood plasma,No degradation
same,Degradation,[1]; rat blood plasma,No degradation
same,Ion channel inhibition,[2],did not inhibit
same,Ion channel inhibition,[3],did not inhibit
same,Ion channel inhibition,[4],did not inhibit
same,Ion channel inhibition,[5],did not inhibit
same,Ion channel inhibition,[6],did not inhibit
same,Intrinsic clearance (CLint),"[7]; 5 μM, classified as low",0.01 mL/(h × 1 million cells)
same,Directly glucuronic acid-conjugated metabolites,[7]; human primary plated hepatocytes,not observed
same,"Off-target inhibitory effects, binding assays",[8],no critical inhibiting effect
